Assays:
[1] = system: primary astrocytes and microglial cells; test: Nitrites measurement (Griess reaction) in LPS-stimulated primary glial cells; format: cell-based, rat; details: for reduction of LPS-induced nitrite production: compounds 10 μM for 1 hour, then LPS 10 μg/mL for 24 hours, astrocytes and microglia, potency compared with 6-amino triazinones A-C (FIGS. 2A, 2B); for nitrite production in astrocyte cells: compounds 10 μM, LPS 10 μg/mL 24 hours, astrocyte cells (FIG. 2A)
Protocol: Astrocytes were prepared from neonatal (P2) rat cerebral cortex, as previously described by Luna-Medina et al. [Luna-Medina, R.; Cortes-Canteli, M.; Alonso, M.; Santos, A.; Martinez, A.; Perez-Castillo, A. Regulation of inflammatory response in neural cells in vitro by thiadiazolidinones derivatives through peroxisome proliferator-activated receptor gamma activation. J. Biol. Chem. 2005, 280, 21453-21462].
Briefly, after removal of the meninges, the cerebral cortex was dissected, dissociated, and incubated with 0.25% trypsin/EDTA at 37° C. for 1 hour. After centrifugation, the pellet was washed 3 times with Hank's balanced salt solution (HBSS) (Gibco) and the cells were placed on noncoated flasks and maintained in HAMS/Dulbecco's modified eagle's medium (DMEM) (1:1) medium containing 10% of fetal bovine serum (FBS). After 15 days, the flasks were agitated on an orbital shaker for 4 hours at 240 rpm at 37° C., the supernatant was collected, centrifuged, and the cellular pellet containing the microglial cells resuspended in complete medium (HAMS/DMEM (1:1) containing 10% FBS) and seeded on uncoated 96-well plates. Cells were allowed to adhere for 2 hours, and the medium was removed to eliminate nonadherent oligodendrocytes. New fresh medium containing 10 ng/mL of granulocyte-macrophage colony-stimulating factor (GM-CSF) was added. The remaining astroglial cells adhered on the flasks were then trypsinized, collected, centrifugated, and plated onto 96-well plates with complete medium. The purity of cultures obtained by this procedure was >98% as determined by immunofluorescence with the OX42 (microglial marker) and the glial fibrillary acidic protein (GFAP, astroglial marker) antibodies.
The potential anti-inflammatory activity of the selected compounds was tested by evaluating the production of nitrites from primary cultured glial cells. Primary cultures of astrocytes and microglia were incubated with the selected compounds (10 μM) for 1 hour, and then cells were cultured for another 24 hours with a potent inflammatory agent, such as lipopolysaccharide (LPS) (10 μg/mL). LPS is able to induce nitrite production and accumulation in the culture medium, which was assayed by the standard Griess reaction. Supernatants were collected from the media and mixed with an equal volume of Griess reagent (Sigma). Samples were then incubated at rt for 15 minutes and absorbance read using a plate reader at 492/540 nm.

[2] = system: neurosphere cultures of primary rat neural stem cells; test: Neurosphere cultures, immunocytochemistry for neural markers; format: cell-based; details: 10 μM during a week; compared to control (FIG. 3)
From the text: Neurosphere (NS) cultures were derived from the hippocampus of adult rats and induced to proliferate using established passaging methods to achieve optimal cellular expansion according to published protocols [Ferron, S. R.; Andreu-Agullo, C.; Mira, H.; Sanchez, P.; Marques-Torrejon, M. A.; Farinas, I. A combined ex/in vivo assay to detect effects of exogenously added factors in neural stem cells. Nature Protoc. 2007, 2, 849-859]. Rats were decapitated, brains removed, and the hippocampus dissected as described [Morales-Garcia, J. A.; Luna-Medina, R.; Alfaro-Cervello, C.; Cortes-Canteli, M.; Santos, A.; Garcia-Verdugo, J. M.; Perez-Castillo, A. Peroxisome proliferator-activated receptor gamma ligands regulate neural stem cell proliferation and differentiation in vitro and in vivo. Glia 2011, 59, 293-307]. Briefly, cells were seeded into 12-well dishes and cultured in DMEM/F12 (1:1, Invitrogen) containing 10 ng/mL epidermal growth factor (EGF, Peprotech, London, UK), 10 ng/mL fibroblast growth factor (FGF, Peprotech), and B27 medium (Gibco). After 3 days in culture, NS were cultivated in the presence or absence of the indicated compounds (10 μM) during a week. After that, NS from 10-day old cultures were plated for 72 hours onto 100 μg/mL poly-L-lysine-coated coverslips in the absence of exogenous growth factors.
Neurogenesis is a crucial property for new AD-modifying drugs, since it confers the potential to increase endogenous regeneration as a repair mechanism in the damaged brain, and reduce neuronal loss and degeneration. Considering that GSK-3β inhibition is reported to regulate and increase neurogenesis [Lange, C.; Mix, E.; Frahm, J.; Glass, A.; Muller, J.; Schmitt, O.; Schmole, A. C.; Klemm, K.; Ortinau, S.; Hubner, R.; Frech, M. J.; Wree, A.; Rolfs, A. Small molecule GSK-3 inhibitors increase neurogenesis of human neural progenitor cells. Neurosci. […]

Row | Compound | reduction of LPS-induced nitrite production [1] | nitrite production in astrocyte cells [1] | number of β-tubulin positive cells (immature neuronal marker) [2] | number of MAP-2 positive cells (mature neuronal marker) [2]
1 | CCNC1=NC(c2ccc(F)cc2)NC(=O)N1 (racemic) [Example 3, 6-(ethylamino)-4-(4-fluorophenyl)-3,4-dihydro-1,3,5-triazin-2(1H)-one] | higher potency | restore nitrite production to basal level | significantly increased | –
2 | CCCNC1=NC(c2ccc(F)cc2)NC(=O)N1 (stereo not drawn) [Example 6, 4-(4-fluorophenyl)-6-(propylamino)-3,4-dihydro-1,3,5-triazin-2(1H)-one] | higher potency | restore nitrite production to basal level | – | significantly amplified

Reference: patent US9975861B2, “Dual inhibitor compounds for use in the treatment of neurodegenerative disorders and alzheimer's disease” (FONDAZIONE ISTITUTO ITALIANO DI TECNOLOGIA, priority 2014, dated 2018)
